According to patent publication US5599548A, “Skin care compositions containing fatty acid amides and retinol or retinyl ester” (priority 1995, dated 1997):
Like-named read-outs stand apart in the source and are kept apart here. Values belong to the compound of their own block, whether it stands above or below them.

Legend:
[1] = test system: TGase I (keratinocyte transglutaminase level); assay: Transglutaminase (TGase I) ELISA assay (keratinocyte differentiation); assay type: cell-based, human; conditions: for activity at 0.1 µM / mean TGase level ± s.d: 72 h, ROH 2.5 × 10^-7 M; for effect on keratinocyte TG1 levels / differentiation, in words: concentrations as in the respective Example
Protocol: (§1) Human keratinocytes, isolated from neonatal foreskin by trypsin treatment were grown in Dulbecco Modification Eagle (DME) Hams F12 (1:1) medium/10% fetal calf serum in the presence of irradiated 3T3 mouse fibroblasts for establishing dividing keratinocyte colonies. Cells were grown under the above condition until their second passage and kept frozen for future use. […] On day 7, when the cells were 80-90% confluent, they were trypsinized and plated in the serum-free medium for the various experiments.
During the process of terminal differentiation in the epidermis, a 15 nm thick layer of protein, known as the cornified envelope (CE) is formed on the inner surface of the cell periphery. The CE is composed of numerous distinct proteins which have been cross-linked together by the formation of N^ε -(γ-glutamyl) lysine isodipeptide bonds catalyzed by the action of at least two different transglutaminases (TGases) expressed in the epidermis. TGase I is expressed in abundance in the differentiated layers of the epidermis, especially the granular layer, but is absent in the undifferentiated basal epidermis. Thus TGase I is a useful marker of epidermal keratinocyte differentiation with high TGase I levels indicating a more differentiated state. An ELISA based TGase I assay, using a TGase I antibody, was used to assess the state of differentiation of the cultured keratinocytes in the examples that follow.
Keratinocytes (cultured as described above) were plated in 96 well plates at a density of 3,000 cells per well in 200 μl media. After incubation for four days the media was changed to media containing test compounds (six replicates per test). The cells were cultured for a further 72 hours after which time the media was aspirated and the plates stored at -70° C. Plates were removed from the freezer, and the cells washed with PBS. 100 μl sterile water was added and the cells were freeze fractured by freezing at -70° C. then thawing. The cells were incubated for one hour at room temperature (R/T) with PBS/3% BSA (wash buffer, bovine serum albumin), then rinsed with a fresh aliquot of wash buffer. Cells were incubated with 50 μl of primary antibodies monoclonal anti-human transglutaminase (IgG) obtained from Amersham (mouse) diluted 1:300 in wash buffer for one hour, 37° C. then rinsed two times with wash buffer. Cells were then incubated with 50 μl of secondary antibody (Feb fragment, peroxidase conjugated anti-mouse IgG obtaining from Amersham) diluted 1:200 in wash buffer for one hour at 37° C., then rinsed two times with wash buffer. Cells were incubated with substrate solution (4 mg o-phenylene diamine and 3.3 μl 30% H2 O2 in 10 ml 0.1M citrate buffer pH 5.0) for five minutes, R/T, in darkness (under aluminum foil). The reaction was stopped by the addition of 50 μl 4N H2 SO4. The absorbance of samples was read at 492 nm in the plate reader. Out of the six replicates, four were treated with both antibodies, two were treated only with the secondary antibody (i.e., to determine background binding of enzyme conjugated Ab). TGase levels were determined by subtracting background from the readings from each treatment and determining mean ±s.d. for the replicates exposed to both Ab.

[2] = test system: Human keratinocytes; assay: 3H-Thymidine incorporation (keratinocyte proliferation); assay type: cell-based; conditions: for effect on keratinocyte proliferation, in words: concentrations as in the respective Example; for activity at 0.001 µM: Table 4D, ROH 2.5 × 10^-8 M, linoleoyl-MEA 10^-9 M; for activity at 0.001 µM / activity at 1 µM: RA; for activity at 1 µM: Table 4C, retinol 2.5 × 10^-8 M, palmitoyl-MEA 10^-6 M
Protocol: as §1
The incorporation of […] by cultured keratinocytes was used as an assay of keratinocyte proliferation. Thymidine is one of four deoxynucleosides which are the monomeric units of DNA, the universal library of genetic information in the animal kingdom. Prior to cell division of a somatic cell such as a keratinocyte, the complete genome of the cell undergoing cell division is replicated. This involves large scale DNA synthesis by the cell and enables both daughter cells to receive identical copies of the genetic material. When ^3 H-thymidine is included in the culture media of keratinocytes which are synthesizing DNA in preparation for cell division then the labelled nucleoside is incorporated into the newly synthesized DNA. The extent of incorporation of ^3 H-thymidine into a population of cells is proportional to the rate of DNA synthesis by this population of cells and therefore an indication of their cellular proliferation.
Keratinocytes (that were cultured as described above) were plated in 24 well plates at a density of 40,000 cells per well in 1 ml media. After incubation for four days or until the cells were 60-70% confluent, the media was changed. Test compounds were added (in triplicate) to the wells 24 hours after the media change, and four hours later 1μCi^3 H-Thymidine in 50 μl media was added per well. Cells were incubated for a further 24 hours. Media was removed from the cells, 10% ice cold trichloroacetic acid (TCA) added and plates were incubated on ice for 30 minutes. Cells were washed five times with 5% TCA and allowed to dissolve in 500 μl 0.1M NaOH for at least one hour (usually overnight). The preparations were neutralized with 0.1M HCl; 50 μl of the cell preparation was used to determine total protein content. Disintegrations per minute (DPM) from ^3 H labelling of DNA was determined by liquid scintillation counting of […] of the cell preparation. Thymidine incorporation results were expressed as DPM/μg protein.

effect on keratinocyte TG1 levels / differentiation, in words [1]: no effect on keratinocyte TG1 levels
SMILES: CC(N)=O [Acetamide (C2), acetamide]
activity at 0.1 µM ([1]; Homo sapiens, Keratinocyte, Table 6B, RA, acetamide 10^-7 M, alone or combined, n = 3, read-out: TGase (TG1) level, % control): 98%
mean TGase level ± s.d ([1]; Table 6B (Effect on Keratinocyte TGase), RA, acetamide 10^-7 M, alone or combined, n = 3): 0.480 ± 0.042

SMILES: NC=O [Formamide (C1), formamide]
activity at 0.1 µM ([1]; Homo sapiens, Keratinocyte, Table 6A, RA, formamide 10^-7 M, alone or combined, n = 3, read-out: TGase (TG1) level, % control): 85%
mean TGase level ± s.d ([1]; Table 6A (Effect on Keratinocyte TGase), RA, formamide 10^-7 M, alone or combined, n = 3): 0.413 ± 0.069
effect on keratinocyte TG1 levels / differentiation, in words [1]: small inhibitory effect on keratinocyte TG1 levels

effect on keratinocyte TG1 levels / differentiation, in words [1]: appeared to stimulate TG1
SMILES: CCCCC/C=C\C/C=C\CCCCCCCC(=O)O [Linoleic acid (LA), Linoleic acid]
activity at 1 µM ([1]; Homo sapiens, Keratinocyte, Table 5A, RA, retinol 2.5 × 10^-7 M, linoleic acid 10^-6 M, alone or combined, n = 3, read-out: TGase (TG1) level, % control): > 100%
mean TGase ± s.d ([1]; Table 5A, RA, retinol 2.5 × 10^-7 M, linoleic acid 10^-6 M, alone or combined, n = 3): 0.161 ± 0.061

SMILES: CCCCC/C=C\C/C=C\CCCCCCCC(=O)OC [Methyl linoleate, methyl linoleate]
activity at 0.01 µM ([1]; Homo sapiens, Keratinocyte, Table 5B, RA, retinol 2.5 × 10^-8 M, methyl linoleate 10^-8 M, alone or combined, n = 3, read-out: TGase (TG1) level, % control): 67%
mean TGase ± s.d ([1]; Table 5B, RA, retinol 2.5 × 10^-8 M, methyl linoleate 10^-8 M, alone or combined, n = 3): 0.193 ± 0.033
effect on keratinocyte TG1 levels / differentiation, in words [1]: repressed TG1 to the same extent as 2.5×10^-8 M retinol

effect on keratinocyte TG1 levels / differentiation, in words [1]: no effect on keratinocyte TG1 levels
SMILES: CCCCC(=O)N(CCO)CCO [Pentanoyl-DEA (C5-DEA)]
activity at 0.1 µM ([1]; Homo sapiens, Keratinocyte, Table 6C, RA, pentanoyl-DEA 10^-7 M, alone or combined, n = 3, read-out: TGase (TG1) level, % control): 99%
mean TGase level ± s.d ([1]; Table 6C (Effect on Keratinocyte TGase), RA, pentanoyl-DEA 10^-7 M, alone or combined, n = 3): 0.425 ± 0.079

SMILES: CCCCCCCCCCCCCCCC(=O)OC/C=C(C)/C=C/C=C(C)/C=C/C1=C(C)CCCC1(C)C [RP, retinyl palmitate]
activity at 0.25 µM ([2]; Homo sapiens, Keratinocyte, 24 h, Table 3A, RA 2.5 × 10^-9 M, RP 2.5 × 10^-7 M, linoleoyl-DEA 10^-8 M, alone or combined, n = 3, read-out: thymidine incorporation, % control): 111%
mean Thymidine incorp./μg protein ± s.d ([2]; Table 3A, RA 2.5 × 10^-9 M, RP 2.5 × 10^-7 M, linoleoyl-DEA 10^-8 M, alone or combined, n = 3): 1884 ± 64 DPM/μg protein
effect on keratinocyte proliferation, in words [2]: increased keratinocyte thymidine incorporation over the control
activity at 0.25 µM ([1]; Homo sapiens, Keratinocyte, Table 3B, RA, RP 2.5 × 10^-7 M, linoleoyl-DEA 10^-6 M, alone or combined, n = 3, read-out: TGase (TG1) level, % control): 82%
activity at 2.5 µM ([1]; Homo sapiens, Keratinocyte, Table 8A, 2.5 × 10^-6 M, n = 3, read-out: TGase, % control): 95%
activity at 0.25 µM ([1]; Homo sapiens, Keratinocyte, Table 8A, 2.5 × 10^-7 M, n = 3, read-out: TGase, % control): 82%
activity at 0.025 µM ([1]; Homo sapiens, Keratinocyte, Table 8A, 2.5 × 10^-8 M, n = 3, read-out: TGase, % control): 82%
activity at 0.0025 µM ([1]; Homo sapiens, Keratinocyte, Table 8A, 2.5 × 10^-9 M, n = 3, read-out: TGase, % control): 76%
activity at 2.5 µM ([1]; Homo sapiens, Keratinocyte, Table 8B, 2.5 × 10^-6 M, n = 3, read-out: TGase, % control): 52%
activity at 0.00025 µM ([1]; Homo sapiens, Keratinocyte, Table 8B, 2.5 × 10^-10 M, n = 3, read-out: TGase, % control): 108%
mean TGase ± s.d ([1]; Table 3B, RA, RP 2.5 × 10^-7 M, linoleoyl-DEA 10^-6 M, alone or combined, n = 3): 0.177 ± 0.026
mean TGase ± s.d ([1]; Table 8A, 2.5 × 10^-6 M, n = 3): 0.206 ± 0.034
mean TGase ± s.d ([1]; Table 8A, 2.5 × 10^-7 M, n = 3): 0.177 ± 0.026
mean TGase ± s.d ([1]; Table 8A, 2.5 × 10^-8 M, n = 3): 0.177 ± 0.054
mean TGase ± s.d ([1]; Table 8A, 2.5 × 10^-9 M, n = 3): 0.165 ± 0.030
mean TGase ± s.d ([1]; Table 8B, 2.5 × 10^-6 M, n = 3): 0.063 ± 0.019
mean TGase ± s.d ([1]; Table 8B, 2.5 × 10^-10 M, n = 3): 0.132 ± 0.038

SMILES: CCCCC/C=C\C/C=C\CCCCCCCC(=O)NCCO [linoleoyl-MEA, linoleoyl-monoethanolamide]
activity at 0.001 µM ([2]; Homo sapiens, Keratinocyte, 24 h, alone or combined, 24 h, n = 3, read-out: thymidine incorporation, % control): 67%
activity at 0.001 µM ([2]; Homo sapiens, Keratinocyte, 24 h, alone or combined, 24 h, normalized to ethanol control, n = 3, read-out: mean Thymidine incorp./μg protein ± s.d): 67 ± 18%
effect on keratinocyte proliferation, in words [2]: inhibitory effect on keratinocyte proliferation

SMILES: CCCCCCCCCCCCCCCC(=O)NCCO [palmitoyl-MEA, palmitoyl-monoethanolamide]
activity at 1 µM ([2]; Homo sapiens, Keratinocyte, 24 h, alone or combined, n = 3, read-out: thymidine incorporation, % control): 97%
activity at 1 µM ([2]; Homo sapiens, Keratinocyte, alone or combined, control = 1.000, n = 3, read-out: mean Thymidine incorp./μg protein ± s.d): 97.4 ± 8%
effect on keratinocyte proliferation, in words [2]: Neither 10^-8 M palmitoyl-MEA nor 2.5×10^-8 M retinol had an effect on keratinocyte proliferation
